Results reported in US20130029970A1 (priority 2009, published 2013).

What was measured:
[1] = biological target: T1, recombinant human cannabinoid receptor CB1 (Homo sapiens, UniProt P21554); assay: Cannabinoid receptor radioligand binding assay, [3H]-CP 55,940 displacement, hCB1
T1 construct: (cDNA clone) CNR01L000
In short: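 Displacement of 0.5 nM [3H]-CP 55,940 (1 μM unlabeled CP 55,940 for nonspecific) measured by filtration and scintillation counting. Binding ran 90 min at room temperature in pH 7.5 Tris buffer with 0.1% fatty-acid-free BSA, using recombinant hCB1 HEK-293 membranes at 2-10 μg protein.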

[2] = biological target: T2, human CB1 receptors (Homo sapiens, UniProt P21554); assay: cAMP assay in HEK-293 cells, hCB1 agonist; format: cell-based; settings: inhibition of forskolin-stimulated cAMP, HEK-293 cells; for EC50: read-out: hCB1 EC50 (cAMP ag)
T2 construct: (cDNA clone) CNR01L000
In short: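 Agonist EC50 taken as concentration giving half inhibition of forskolin-driven cAMP, normalized to forskolin maximum, from sigmoidal curves. Whole HEK-293 cells stably expressing hCB1, in HEPES/BSA-containing HBSS, exposed 30 min at 37° C. to compound with forskolin (90 uM in 3× dilution); cAMP read after lysis.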

T1 sequence (P21554 whole entry): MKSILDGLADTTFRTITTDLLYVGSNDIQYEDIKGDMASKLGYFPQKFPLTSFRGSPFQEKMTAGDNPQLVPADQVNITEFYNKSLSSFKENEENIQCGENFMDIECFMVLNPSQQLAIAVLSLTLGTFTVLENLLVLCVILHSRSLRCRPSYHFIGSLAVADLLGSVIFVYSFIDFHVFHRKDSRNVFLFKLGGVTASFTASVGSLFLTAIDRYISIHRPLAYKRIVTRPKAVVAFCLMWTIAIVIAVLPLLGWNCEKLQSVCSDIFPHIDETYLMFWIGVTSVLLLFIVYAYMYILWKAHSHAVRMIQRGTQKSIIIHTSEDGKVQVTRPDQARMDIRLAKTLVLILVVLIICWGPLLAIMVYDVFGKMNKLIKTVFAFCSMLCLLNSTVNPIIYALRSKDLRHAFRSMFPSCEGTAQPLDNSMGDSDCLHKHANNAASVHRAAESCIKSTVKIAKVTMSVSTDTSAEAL
T2 sequence (P21554 whole entry): as above

SMILES	IC50 [1]	hCB1 EC50 (cAMP ag, nM) [2]	EC50 [2]
Cc1cc2cc(C(=O)c3cccc(Cl)c3)sc2n1CCN1CCOCC1 [Compound 4, (3-Chlorophenyl)(5-methyl-6-(2-morpholinoethyl)-6H-thieno[2,3-b]pyrrol-2-yl)methanone]	1 to 10 µM	NS (NS means “Not Significant,” which means less than 30% agonist activity when compared to the positive control.)	–
Cc1cc2cc(C(=O)c3ccccc3)sc2n1CCN1CCOCC1 [Compound 7, (5-Methyl-6-(2-morpholinoethyl)-6H-thieno[2,3-b]pyrrol-2-yl)(phenyl)methanone]	1 to 10 µM	–	1 to 10 µM
Cc1cc2cc(C(=O)c3ccc(Cl)cc3Cl)sc2n1CCN1CCOCC1 [Compound 10, (2,4-Dichlorophenyl)(5-methyl-6-(2-morpholinoethyl)-6H-thieno[2,3-b]pyrrol-2-yl)methanone]	0.1 to 1 µM	–	0.1 to 1 µM
Cc1ccccc1C(=O)c1cc2cc(C)n(CCN3CCOCC3)c2s1 [Compound 12, (5-Methyl-6-(2-morpholinoethyl)-6H-thieno[2,3-b]pyrrol-2-yl)(o-tolyl)methanone]	1 to 10 µM	–	0.1 to 1 µM
CCn1c(C)cc2cc(C(=O)c3cccc(Cl)c3Cl)sc21 [Compound 19, (2,3-Dichlorophenyl)(6-ethyl-5-methyl-6H-thieno[2,3-b]pyrrol-2-yl)methanone]	> 10 µM	NS (NS means “Not Significant,” which means less than 30% agonist activity when compared to the positive control.)	–
CCS(=O)(=O)n1c(C)cc2cc(C(=O)c3cccc(Cl)c3Cl)sc21 [Compound 25, (2,3-Dichlorophenyl)(6-(ethylsulfonyl)-5-methyl-6H-thieno[2,3-b]pyrrol-2-yl)methanone]	1 to 10 µM	NS (NS means “Not Significant,” which means less than 30% agonist activity when compared to the positive control.)	–
COc1cccc(C(=O)c2cc3cc(C)n(CCN4CCOCC4)c3s2)c1 [Compound 26, (3-Methoxyphenyl)(5-methyl-6-(2-morpholinoethyl)-6H-thieno[2,3-b]pyrrol-2-yl)methanone]	0.1 to 1 µM	–	0.1 to 1 µM
Cc1cc2cc(C(=O)c3cccc(Cl)c3Cl)sc2n1CC1CCOCC1 [Compound 31, (2,3-Dichlorophenyl)(5-methyl-6-((tetrahydro-2H-pyran-4-yl)methyl)-6H-thieno[2,3-b]pyrrol-2-yl)methanone]	0.1 to 1 µM	NS (NS means “Not Significant,” which means less than 30% agonist activity when compared to the positive control.)	–
Cc1cc2cc(Cc3cccc(Cl)c3Cl)sc2n1CCN1CCOCC1 [Compound 32, 4-(2-(2-(2,3-Dichlorobenzyl)-5-methyl-6H-thieno[2,3-b]pyrrol-6-yl)ethyl)morpholine]	1 to 10 µM	–	1 to 10 µM
Cc1cc2cc(C(=O)c3cccc(Cl)c3Cl)sc2n1CCCNS(C)(=O)=O [Compound 37, N-(3-(2-(2,3-Dichlorobenzoyl)-5-methyl-6H-thieno[2,3-b]pyrrol-6-yl)propyl)methanesulfonamide]	> 10 µM	NS (NS means “Not Significant,” which means less than 30% agonist activity when compared to the positive control.)	–
Cc1cc2cc(C(=O)c3cccc(Cl)c3Cl)sc2n1S(=O)(=O)C(C)C [Compound 38, (2,3-Dichlorophenyl)(6-(isopropylsulfonyl)-5-methyl-6H-thieno[2,3-b]pyrrol-2-yl)methanone]	1 to 10 µM	NS (NS means “Not Significant,” which means less than 30% agonist activity when compared to the positive control.)	–
CCS(=O)(=O)n1c(C)cc2cc(C(=O)c3ccccc3Cl)sc21 [Compound 42, (2-Chlorophenyl)(6-(ethylsulfonyl)-5-methyl-6H-thieno[2,3-b]pyrrol-2-yl)methanone]	1 to 10 µM	NS (NS means “Not Significant,” which means less than 30% agonist activity when compared to the positive control.)	–
CCS(=O)(=O)n1c(C)cc2cc(C(=O)c3cccnc3Cl)sc21 [Compound 43, (2-Chloropyridin-3-yl)(6-(ethylsulfonyl)-5-methyl-6H-thieno[2,3-b]pyrrol-2-yl)methanone]	> 10 µM	NS (NS means “Not Significant,” which means less than 30% agonist activity when compared to the positive control.)	–
COc1ccc(C(=O)c2cc3cc(C)n(CCCNS(C)(=O)=O)c3s2)cc1 [Compound 44, N-(3-(2-(4-methoxybenzoyl)-5-methyl-6H-thieno[2,3-b]pyrrol-6-yl)propyl)methanesulfonamide]	1 to 10 µM	NS (NS means “Not Significant,” which means less than 30% agonist activity when compared to the positive control.)	–
COc1ncccc1C(=O)c1cc2cc(C)n(CCN3CCOCC3)c2s1 [Compound 47, (2-Methoxypyridin-3-yl)(5-methyl-6-(2-morpholinoethyl)-6H-thieno[2,3-b]pyrrol-2-yl)methanone]	> 10 µM	NS (NS means “Not Significant,” which means less than 30% agonist activity when compared to the positive control.)	–
COc1ccc(C(=O)c2cc3cc(C)n(S(=O)(=O)N(C)C)c3s2)cc1 [Compound 51, 2-(4-Methoxybenzoyl)-N,N,5-trimethyl-6H-thieno[2,3-b]pyrrole-6-sulfonamide]	1 to 10 µM	NS (NS means “Not Significant,” which means less than 30% agonist activity when compared to the positive control.)	–
Cc1cc2cc(C(=O)c3ccc(F)cc3)sc2n1CCN1CCOCC1 [Compound 54, (4-Fluorophenyl)(5-methyl-6-(2-morpholinoethyl)-6H-thieno[2,3-b]pyrrol-2-yl)methanone]	1 to 10 µM	NS (NS means “Not Significant,” which means less than 30% agonist activity when compared to the positive control.)	–
CCS(=O)(=O)n1c(C)cc2cc(C(=O)c3ccc(OC)cc3)sc21 [Compound 56, (6-(Ethylsulfonyl)-5-methyl-6H-thieno[2,3-b]pyrrol-2-yl)(4-methoxyphenyl)methanone]	> 10 µM	NS (NS means “Not Significant,” which means less than 30% agonist activity when compared to the positive control.)	–
COc1ccc(C(=O)c2cc3cc(C)n(CCN4CCOCC4)c3s2)cn1 [Compound 58, (6-Methoxypyridin-3-yl)(5-methyl-6-(2-morpholinoethyl)-6H-thieno[2,3-b]pyrrol-2-yl)methanone]	> 10 µM	NS (NS means “Not Significant,” which means less than 30% agonist activity when compared to the positive control.)	–
Cc1cc2cc(C(=O)c3ccc(C(F)(F)F)cc3)sc2n1CCN1CCOCC1 [Compound 60, (5-Methyl-6-(2-morpholinoethyl)-6H-thieno[2,3-b]pyrrol-2-yl)(4-(trifluoromethyl)phenyl)methanone]	> 10 µM	NS (NS means “Not Significant,” which means less than 30% agonist activity when compared to the positive control.)	–
COc1ccc(C(=O)c2cc3cc(C)n(CCN4CCOCC4)c3s2)c(Cl)c1 [Compound 70, (2-Chloro-4-methoxyphenyl)(5-methyl-6-(2-morpholinoethyl)-6H-thieno[2,3-b]pyrrol-2-yl)methanone]	0.1 to 1 µM	–	0.1 to 1 µM
COc1ccc(C(=O)c2cc3cc(C)n(Cc4ccccc4)c3s2)cc1 [Compound 84, (6-Benzyl-5-methyl-6H-thieno[2,3-b]pyrrol-2-yl)(4-methoxyphenyl)methanone]	1 to 10 µM	NS (NS means “Not Significant,” which means less than 30% agonist activity when compared to the positive control.)	–
COc1ccc(C(=O)c2cc3cc(C)n(CCCCl)c3s2)c(Cl)c1 [Compound 85, (2-Chloro-4-methoxyphenyl)(6-(3-chloropropyl)-5-methyl-6H-thieno[2,3-b]pyrrol-2-yl)methanone]	1 to 10 µM	–	1 to 10 µM
COc1ccc(C(=O)c2cc3cc(C)n(CCCNS(C)(=O)=O)c3s2)c(F)c1 [Compound 87, N-(3-(2-(2-Fluoro-4-methoxybenzoyl)-5-methyl-6H-thieno[2,3-b]pyrrol-6-yl)propyl)methanesulfonamide]	> 10 µM	NS (NS means “Not Significant,” which means less than 30% agonist activity when compared to the positive control.)	–
COc1ccc(C(=O)c2cc3cc(C)n(CCCNS(C)(=O)=O)c3s2)c(Cl)c1 [Compound 91, N-(3-(2-(2-Chloro-4-methoxybenzoyl)-5-methyl-6H-thieno[2,3-b]pyrrol-6-yl)propyl)methanesulfonamide]	> 10 µM	NS (NS means “Not Significant,” which means less than 30% agonist activity when compared to the positive control.)	–
Cc1ccc(C(=N)c2cc3cc(C)n(CCN4CCOCC4)c3s2)cc1 [Compound 121, (5-methyl-6-(2-morpholinoethyl)-6H-thieno[2,3-b]pyrrol-2-yl)(p-tolyl)methanimine]	1 to 10 µM	NS (NS means “Not Significant,” which means less than 30% agonist activity when compared to the positive control.)	–
COc1ccc(C(=O)c2cc3cc(C)n(CCN4CCOCC4)c3s2)cc1F [Compound 128, (3-fluoro-4-methoxyphenyl)(5-methyl-6-(2-morpholinoethyl)-6H-thieno[2,3-b]pyrrol-2-yl)methanone]	1 to 10 µM	NS (NS means “Not Significant,” which means less than 30% agonist activity when compared to the positive control.)	–
